The results in this text go back to patent US20220324803A1 (Teon Therapeutics, Inc., priority 2019, published 2022).

SMILES strings stand for the structures. pKi: −log10 of the molar value. A value given as a limit tells only on which side of the number the result lay.

The target of this assay is T1, human Prostanoid EP4 Receptor (EP4) (Homo sapiens, UniProt P35408).
T1 construct: expressed in transfected cells; host or cells: HEK293 (G418 selection); membranes prepared by differential centrifugation
Kind of assay: Prostanoid EP4 binding assay (3H-prostaglandin E2 displacement, cell membranes). Conditions: HEK293 cell membranes with human EP4, 3H-prostaglandin E2, 24° C. Here is the method:
HEK293 cells transfected with human Prostanoid EP4 Receptor (EP4) are maintained in DMEM supplemented with L-Glutamine, 10% FBS and 300 μg/ml G418. Cells are harvested and membranes prepared by differential centrifugation, following lysis of the cells in the presence of protease inhibitors, for use in the receptor binding assay. EP4 binding assay is performed in 50 mM HEPES pH7.4, 5 mM MgCl2, 1 mM CaCl2) and 0.2% BSA. Testing compounds are diluted with DMSO to make 8-point 4-fold serial dilution. Cell membrane homogenates are incubated at 24° C. with ^3H-prostaglandin E2 in the absence or presence of the testing compound in assay buffer. Nonspecific binding (Low control: LC) and total binding (High control: HC) are determined in the presence or absence of saturated cold ligand Prostaglandin E2 (PGE2). Specific binding is calculated by subtracting nonspecific binding from total binding. When binding assays are completed, the reaction mixture is filtered rapidly under vacuum through glass fiber filters (GF/C, Packard) presoaked with 0.5% BSA for at least 0.5 hour at room temperature and then washed for 4 times with cold wash buffer (50 mM HEPES pH7.4, 500 mM NaCl, 0.1% BSA) using a 96-sample Perkin Elmer Filtermate Harvester (Unifilter, Packard). The filters are dried for 1 hour at 50 degrees then counted for radioactivity in a scintillation counter using Perkin Elmer Microscint 20 cocktail. ^3H trapped on filter is counted using Perkin Elmer MicroBeta2 Reader. Inhibition is calculated using following equation: % Inhibition=(1−(Assay well−Average_LC)/(Average_HC−Average_LC))×100%. The results are expressed as a percent inhibition of the control radioligand specific binding. Data are analyzed and IC50 is calculated using GraphPad Prism 5 and the model “log(inhibitor) vs. response—Variable slope”. The binding affinity of the compounds is determined by using the Cheng and Prusoff equation Ki=IC50/(1+[radioligand]/Kd).

T1 sequence (P35408 whole entry): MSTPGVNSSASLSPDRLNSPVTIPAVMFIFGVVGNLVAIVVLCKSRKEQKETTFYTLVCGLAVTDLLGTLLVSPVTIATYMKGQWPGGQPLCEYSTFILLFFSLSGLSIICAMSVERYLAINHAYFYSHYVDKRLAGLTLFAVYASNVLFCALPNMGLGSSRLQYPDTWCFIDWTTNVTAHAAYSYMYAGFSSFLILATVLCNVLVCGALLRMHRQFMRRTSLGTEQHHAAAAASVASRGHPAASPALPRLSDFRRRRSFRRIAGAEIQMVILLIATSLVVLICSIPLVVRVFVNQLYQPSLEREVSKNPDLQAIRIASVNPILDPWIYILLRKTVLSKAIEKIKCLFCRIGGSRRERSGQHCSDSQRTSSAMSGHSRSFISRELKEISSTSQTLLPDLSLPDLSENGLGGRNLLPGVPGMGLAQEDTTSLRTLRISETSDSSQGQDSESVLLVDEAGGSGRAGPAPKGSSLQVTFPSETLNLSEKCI

Turning to `CCn1cc(C(=O)NC[C@H]2CC[C@H](C(=O)O)CC2)c2c(Cc3ccc(C(F)(F)F)cc3)cccc21` [Compound 55, (1r,4r)-4-[[[1-ethyl-4-[[4-(trifluoromethyl)phenyl]methyl]indole-3-carbonyl]amino]methyl]cyclohexanecarboxylic acid], the pKi (as a rule, the Ki on a negative log10 scale, so that one unit is a factor of ten) was above 7.00.
Consider `CCn1nc(C(=O)NC23CC(CC(=O)O)(C2)C3)c2c(Cc3ccc(C(F)(F)F)cc3)cccc21` [Compound 19, 2-[3-[[1-ethyl-4-[[4-(trifluoromethyl)phenyl]methyl]indazole-3-carbonyl]amino]-1-bicyclo[1.1.1]pentanyl]acetic acid], for which the negative logarithm of the Ki (pKi) was 6.30 to 7.00.
Turning to `O=C(O)C[C@H]1CC[C@H](NC(=O)c2cn(CCF)c3nccc(Cc4ccc(C(F)(F)F)cc4)c23)CC1` [Compound 57, 2-[(1r,4r)-4-[[1-(2-fluoroethyl)-4-[[4-(trifluoromethyl)-phenyl]methyl]pyrrolo[2,3-b]pyridine-3-carbonyl]amino]cyclohexyl]acetic acid], the pKi is above 7.00.
With `CCn1cc(C(=O)N[C@@H](C)c2ccc(C(=O)O)cc2)c2c(Cc3ccc(C(F)(F)F)cc3)cccc21` [Compound 42, 4-[(1S)-1-[[1-ethyl-4-[[4-(trifluoromethyl)phenyl]methyl]indole-3-carbonyl]amino]ethyl]benzoic acid], the pKi was above 7.00.
In the case of `CC(C(=O)O)c1ccc(NC(=O)c2cnn3cccc(Cc4ccc(C(F)(F)F)cc4)c23)cc1` (stereo not shown) [Compound 49, 2-[4-[[4-[[4-(trifluoromethyl)phenyl]methyl]pyrazolo[1,5-a]pyridine-3-carbonyl]amino]phenyl]propanoic acid] it was 6.30 to 7.00; in that of `C[C@@H](NC(=O)c1cnn2cccc(Cc3ccc(C(F)(F)F)cc3)c12)c1ccc(C(=O)O)cc1` [Compound 27, 4-[(1R)-1-[[4-[[4-(trifluoromethyl)phenyl]methyl]pyrazolo[1,5-a]pyridine-3-carbonyl]amino]ethyl]benzoic acid], above 7.00; in that of `O=C(O)CC12CC(NC(=O)c3cn(CCF)c4cccc(Cc5ccc(C(F)(F)F)cc5)c34)(C1)C2` [Compound 52, 2-[3-[[1-(2-fluoroethyl)-4-[[4-(trifluoromethyl)phenyl]methyl]-indole-3-carbonyl]amino]-1-bicyclo[1.1.1.1]pentanyl]acetic acid], above 7.00.
`O=C(NC1CC2(C1)CC(C(=O)O)C2)c1cn(CCF)c2nccc(Cc3ccc(C(F)(F)F)cc3)c12` (stereo not drawn) [Compound 48, trans-2-[[1-(2-fluoroethyl)-4-[[4-(trifluoromethyl)phenyl]methyl]-pyrrolo[2,3-b]pyridine-3-carbonyl]amino]spiro[3.3]heptane-6-carboxylic acid] gave a pKi above 7.00.
In the case of `C[C@H](NC(=O)c1cn(CCF)c2cccc(Cc3ccc(C(F)(F)F)cc3)c12)c1ccc(C(=O)O)cc1` [Compound 43, 4-[(1S)-1-[[1-(2-fluoroethyl)-4-[[4-(trifluoromethyl)phenyl]methyl]indole-3-carbonyl]amino]ethyl]benzoic acid] it was above 7.00; in that of `CCn1cc(C(=O)NC2CC3(C2)CC(C(=O)O)C3)c2c(Cc3ccc(C(F)(F)F)cc3)ccnc21` (stereo not drawn) [Compound 45, trans-2-[[1-ethyl-4-[[4-(trifluoromethyl)phenyl]methyl]-pyrrolo[2,3-b]pyridine-3-carbonyl]amino]spiro[3.3]heptane-6-carboxylic acid], above 7.00; in that of `CC(C)n1nc(C(=O)NC23CC(CC(=O)O)(C2)C3)c2c(Cc3ccc(C(F)(F)F)cc3)cccc21` [Compound 22, 2-[3-[[1-isopropyl-4-[[4-(trifluoromethyl)phenyl]methyl]indazole-3-carbonyl]amino]-1-bicyclo[1.1.1]pentanyl]acetic acid], below 6.30.
Turning to `O=C(N[C@H]1CC2(C1)C[C@H](C(=O)O)C2)c1cn(CCF)c2cccc(Cc3ccc(C(F)(F)F)cc3)c12` (stereo partly drawn) [Compound 44, trans-2-[[1-(2-fluoroethyl)-4-[[4-(trifluoromethyl)phenyl]methyl]-indole-3-carbonyl]amino]spiro[3.3]heptane-6-carboxylic acid], the pKi is above 7.00.
In the case of `CCn1cc(C(=O)NC23CC(CC(=O)O)(C2)C3)c2c(Cc3ccc(C(F)(F)F)cc3)cccc21` [Compound 51, 2-[3-[[1-ethyl-4-[[4-(trifluoromethyl)phenyl]methyl]indole-3-carbonyl]amino]-1-bicyclo[1.1.1]pentanyl]acetic acid], the pKi was above 7.00.
Under `CC(C)n1nc(C(=O)N[C@@H](C)c2ccc(C(=O)O)cc2)c2c(Cc3ccc(C(F)(F)F)cc3)cccc21` [Compound 20, 4-[(1S)-1-[[1-isopropyl-4-[[4-(trifluoromethyl)phenyl]methyl]indazole-3-carbonyl]amino]ethyl]benzoic acid] stands above 7.00; under `O=C(O)CC12CCC(NC(=O)c3cnn4cccc(Cc5ccc(C(F)(F)F)cc5)c34)(CC1)CC2` [Compound 35, 2-(4-(4-(4-(trifluoromethyl)benzyl)pyrazolo[1,5-a]pyridine-3-carboxamido)bicyclo[2.2.2]octan-1-yl)acetic acid], 6.30 to 7.00.
On to `CCn1cc(C(=O)N[C@H]2CC3(C2)C[C@H](C(=O)O)C3)c2c(Cc3ccc(C(F)(F)F)cc3)cccc21` (stereo partly drawn) [Compound 41, trans-2-[[1-ethyl-4-[[4-(trifluoromethyl)phenyl]methyl]indole-3-carbonyl]amino]spiro[3.3]heptane-6-carboxylic acid], for which the pKi was above 7.00.
Compound `CCn1cc(C(=O)NC23CC(CC(=O)O)(C2)C3)c2c(Cc3ccc(C(F)(F)F)cc3)ccnc21` [Compound 53] had a pKi above 7.00.
Under `CC(C)Cn1nc(C(=O)N[C@H]2CC3(C2)C[C@H](C(=O)O)C3)c2c(Cc3ccc(C(F)(F)F)cc3)cccc21` (stereo partly drawn) [Compound 24, trans-2-[[1-isobutyl-4-[[4-(trifluoromethyl)phenyl]methyl]indazole-3-carbonyl]amino]spiro[3.3]heptane-6-carboxylic acid] stands above 7.00; under `O=C(NC1CC2(C1)CC(C(=O)O)C2)c1cnn2cccc(Cc3cc4ccccc4cn3)c12` (single isomer, unassigned) [Compound 13B, trans-2-[[4-(3-isoquinolylmethyl)pyrazolo[1,5-a]pyridine-3-carbonyl]amino]spiro[3.3]heptane-6-carboxylic acid], above 7.00; under `CC(C)n1nc2cccc(Cc3ccc(C(F)(F)F)cc3)c2c1C(=O)N[C@@H](C)c1ccc(C(=O)O)cc1` [Compound 29, 4-[(1S)-1-[[2-isopropyl-4-[[4-(trifluoromethyl)phenyl]methyl]indazole-3-carbonyl]amino]ethyl]benzoic acid], above 7.00.
Compound `O=C(O)C[C@H]1CC[C@H](NC(=O)c2cnn3cccc(Cc4ccc(C(F)(F)F)cc4)c23)CC1` [Compound 38, 2-((1r,4r)-4-(4-(4-(trifluoromethyl)benzyl)pyrazolo[1,5-a]pyridine-3-carboxamido)cyclohexyl)acetic acid] gave a pKi above 7.00.
Under `C[C@H](NC(=O)c1cn(CCF)c2nccc(Cc3ccc(C(F)(F)F)cc3)c12)c1ccc(C(=O)O)cc1` [Compound 47, 4-[(1S)-1-[[1-(2-fluoroethyl)-4-[[4-(trifluoromethyl)phenyl]methyl]pyrrolo[2,3-b]pyridine-3-carbonyl]amino]ethyl]benzoic acid] stands above 7.00.
